{"source": "patent US20040265323A1", "about": "“Compositions comprising pathogen elicited epithelial chemoattractant (eicosanoid hepoxilin A3), inhibitors thereof and methods of use thereof” (priority 2003, published 2004)", "key": {"[1]": {"tested_on": "S. typhimurium-infected human intestinal xenografts", "test": "Histopathology of human intestinal xenografts infected with S. typhimurium", "assay_type": "in vivo", "details": "1 μM in 100 μl intralumenally 2 hours prior to infection; xenografts in SCID mice; 15 hours after infection", "description": "Further, the effect of baicalein on S. typhimurium pathology in human intestinal xenografts was determined (Savidge et al., 1995) (FIG. 7). The human fetal intestinal xenograft model used in the present study has been previously described in detail (Savidge et al., 1995). Briefly, human fetal small intestine (n=3, gestational age 10-14weeks) was transplanted subcutaneously into C.B-17 severe-combined immunodeficient (SCID) mice. Xenografts were allowed to develop for a period between 10-20 weeks before use at which time the epithelium and underlying mucosa is fully differentiated (Savidge et al., 1995). Xenografts were infected with approximately 5×10^7 wild type S. typhimurium SL1344 in sterile HBSS(+) buffer in a 100 μl volume injected intralumenally by subcutaneous injection. Xenografts receiving the drug treatment were injected with 1 μM baicalein in a 100 μl volume 2 hours prior to infection with S. typhimurium (in the continued presence of 1 μM baicalein). Xenograft tissue was removed 15 hours after infection, extensively washed, and snap frozen in OCT compound.\nA severe vascular disturbance was also noted. These outcomes are all consistent with the clinical manifestations observed from S. typhimurium infection in humans."}, "[2]": {"tested_on": "PEEC/hepoxilin A3 secretion", "test": "Apical PEEC/hepoxilin A3 release from S. typhimurium infected T84 cell monolayers", "assay_type": "cell-based, human", "details": "S. typhimurium infected T84 with 12-LO inhibitor", "source_text": "T84 cell monolayers were infected with S. typhimurium in the absence or presence of the 12-LO enzyme inhibitor and apical supernatants were examined for PEEC bioactivity. […] Moreover, since it had been previously shown that S. typhimurium via its effector SipA initiates an ARF6-dependent lipid-signaling cascade that directs the activation of PKC and release of PEEC, it was further examined if blocking PKC activity (which would occur upstream of 12-LO) also corresponds with a reduction in hepoxilin A3 bioactivity and release, as one would predict."}, "[3]": {"tested_on": "P. aeruginosa-induced PMN transepithelial migration, A549 cells", "test": "P. aeruginosa-induced PMN transepithelial migration across A549 cell monolayers", "assay_type": "cell-based, human", "details": "A549 monolayers, FIG. 5C", "source_text": "(§1) It was further determined whether similar hepoxilin A3 recruitment of PMN by apically attached pathogens might occur at other mucosal surfaces. Pseudomonas aeruginosa is the most prominent bacterial spp. present during chronic infection in cystic fibrosis and chronic obstructive pulmonary disease patients and is accompanied by severe inflammation, including the emigration of PMN to the airway lumen (Pizurki et al., 2000; Jahn et al., 2000; Weiss, S. 1989). As a model for the airway epithelium the A549 cell line was used. This cell line is capable of forming a polarized barrier, and is widely employed as a model for the airway epithelial surface (Smart and Casale, 1994). […] Finally, the secretion of hepoxlin A3 in vitro was quantified using this A549 model system. For these experiments, A549 lung epithelial cells (ATTC) were grown in F12K media (Invitrogen) with 10% FBS, and maintained in culture similar to the T84 cell line. The wild type P. aeruginosa (PAO1) was used for infection of A549 after overnight aerobic growth (Luria broth) at 37° C."}, "hepoxilin A3 secretion": {"tested_on": "hepoxilin A3 secretion", "test": "Hepoxilin A3 release from P. aeruginosa infected A549 cell monolayers", "assay_type": "cell-based, human", "details": "A549 treated with inhibitor prior to P. aeruginosa infection; listed as 12-LO inhibitor", "source_text": "as §1\nThe apical compartment of A549 cell monolayers treated for 90 minutes with P. aeruginosa had approximately 210 pmoles in the apical compartment and nearly 130 pmoles in the basolateral compartment. […]"}}, "note": "Entries after “also recorded” stand apart in the source; their conditions may differ."}
{"compound": "O=c1cc(-c2ccccc2)oc2cc(O)c(O)c(O)c12", "note": "[baicalein]", "values": [{"measurement": "histopathology / severity of intestinal inflammation", "setting": "[1]", "result": "only minimal alterations detectable; also recorded: significantly reduced; also recorded: significantly less severe"}, {"measurement": "PEEC secretion (bioactivity of apical supernatants)", "setting": "[2]", "result": "significant decrease in PEEC secretion; also recorded: dramatically reduced"}, {"measurement": "P. aeruginosa-induced PMN transepithelial migration with 12-LO inhibitor", "setting": "[3]", "result": "inhibited"}, {"measurement": "hepoxilin A3 levels released", "setting": "hepoxilin A3 secretion", "result": "no detectable levels of hepoxilin A3"}]}
